Patent US12378195B2, “Aminated psilocybin derivatives and methods of using” (Enveric Biosciences Canada Inc., priority 2021, dated 2025)

Columns and labels:
[1] = molecular target: T1, 5-HT1A receptor (Homo sapiens, UniProt P08908); test: cAMP-Glo luminescence assay in +5-HT1A cells (CHO-K1/5-HT1A/Gα15) with forskolin; format: cell-based; details: +5HT1A cell cultures, fixed (4 μM) forskolin, n=3; for luminescence (cAMP) trend with decreasing ligand dosage, 5-HT1A modulation: FIGS. 11J, 11K; for % cAMP levels with decreasing ligand dosage, 5-HT1A activity: FIGS. 11L, 11M
T1 construct: host or cells: CHO-K1 (stably expressing 5-HT1A and Gα15)
T1 sequence (P08908 1-422): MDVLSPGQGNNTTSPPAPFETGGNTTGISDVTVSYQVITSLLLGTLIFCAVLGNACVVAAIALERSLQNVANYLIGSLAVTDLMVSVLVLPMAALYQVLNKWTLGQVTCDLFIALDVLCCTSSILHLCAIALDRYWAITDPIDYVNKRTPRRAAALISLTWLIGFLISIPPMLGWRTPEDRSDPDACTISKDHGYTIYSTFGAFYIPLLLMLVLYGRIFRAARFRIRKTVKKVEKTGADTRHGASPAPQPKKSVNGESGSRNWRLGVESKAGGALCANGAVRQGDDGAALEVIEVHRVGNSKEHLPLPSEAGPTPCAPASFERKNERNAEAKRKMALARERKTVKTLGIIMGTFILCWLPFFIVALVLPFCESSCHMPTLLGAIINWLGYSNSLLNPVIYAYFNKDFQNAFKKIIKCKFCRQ
Text: CHO-K1/Gα15 (GenScript, M00257) (−5-HT1A) and CHO-K1/5-HT1A/Gα15 (GenScript, M00330) (+5-HT1A) cells lines were used. Briefly, CHO-K1/Gα15 is a control cell line that constitutively expresses Gα15 which is a promiscuous Gq protein. This control cell line lacks any transgene encoding 5-HT1A receptors, but still responds to forskolin; thus, cAMP response to forskolin should be the same regardless of whether or not 5-HT1A agonists are present. Conversely, CHO-K1/5-HT1A/Gα15 cells stably express 5-HT1A receptor in the CHO-K1 host background. […] In +5-HT1A cells, Gα15 may be recruited in place of Gαi/o, which could theoretically dampen cAMP response (Rojas and Fiedler 2016, Front Cell Neurosci 10: 272). […] In contrast, tryptophan is not known to activate, or modulate in any way, 5-HT1A receptors, and was thus used as a negative control. Cells were maintained in complete growth media as recommended by supplier (GenScript) which is constituted as follows: Ham's F12 Nutrient mix (HAM's F12, GIBCO #11765-047) with 10% fetal bovine serum (FBS) (Thermo Scientific #12483020), 200 μg/ml zeocin (Thermo Scientific #R25005) and/or 100 μg/ml hygromycin (Thermo Scientific #10687010). The cells were cultured in a humidified incubator with 37° C. and 5% CO2. Cells maintenance was carried out as recommended by the cell supplier. Briefly, vials with cells were removed from the liquid nitrogen and thawed quickly in 37° C. water bath. Just before the cells were completely thawed the vial's outside was decontaminated by 70% ethanol spray. The cell suspension was then retrieved from the vial and added to warm (37° C.) complete growth media, and centrifuged at 1,000 rpm for 5 minutes. The supernatant was discarded, and the cell pellet was then resuspended in another 10 ml of complete growth media, and added to the 10 cm cell culture dish (Greiner Bio-One #664160). The media was changed every third day until the cells were about 90% confluent. The ˜90% confluent cells were then split 10:1 for maintenance or used for experiment.
(§1) As 5-HT1A activation inhibits cAMP formation, the ability of test molecules to modulate 5-HT1A response was measured via changes in the levels of cAMP produced due to application of 4 μM forskolin. The change in intracellular cAMP levels due to the treatment of novel molecules was measured using cAMP-Glo Assay kit (Promega #V1501). […] Reduced ATP caused reduced conversion of luciferin to oxyluciferin, conferring diminished luminescence as the result of 5-HT1A activation. Conversely, enhanced luminescence was expected in cases where 5-HT1A receptor modulation—imparted by a test molecule—caused downstream increases in ATP, thus imparting enhanced conversion of luciferin to oxyluciferin.

[2] = tested on: CHO-K1/Gα15 (−5-HT1A) cells; test: cAMP-Glo assay in control −5-HT1A cells (CHO-K1/Gα15) with forskolin; format: cell-based; details: −5HT1A cell cultures; fixed (4 μM) forskolin; n=3; FIGS. 11L, 11M
Text: CHO-K1/Gα15 (GenScript, M00257) (−5-HT1A) and CHO-K1/5-HT1A/Gα15 (GenScript, M00330) (+5-HT1A) cells lines were used. Briefly, CHO-K1/Gα15 is a control cell line that constitutively expresses Gα15 which is a promiscuous Gq protein. This control cell line lacks any transgene encoding 5-HT1A receptors, but still responds to forskolin; thus, cAMP response to forskolin should be the same regardless of whether or not 5-HT1A agonists are present. Conversely, CHO-K1/5-HT1A/Gα15 cells stably express 5-HT1A receptor in the CHO-K1 host background. […] In +5-HT1A cells, Gα15 may be recruited in place of Gαi/o, which could theoretically dampen cAMP response (Rojas and Fiedler 2016, Front Cell Neurosci 10: 272). […]
as §1

[3] = molecular target: T2, 5-HT2A receptor (Homo sapiens, UniProt P28223); test: [3H]ketanserin competition binding assay (Scintillation Proximity Assay); details: fixed (1 nM) [3H]ketanserin; membranes containing 5-HT2A; FIG. 11E
T2 construct: purchased PerkinElmer ES-313-M400UA
T2 sequence (P28223 whole entry): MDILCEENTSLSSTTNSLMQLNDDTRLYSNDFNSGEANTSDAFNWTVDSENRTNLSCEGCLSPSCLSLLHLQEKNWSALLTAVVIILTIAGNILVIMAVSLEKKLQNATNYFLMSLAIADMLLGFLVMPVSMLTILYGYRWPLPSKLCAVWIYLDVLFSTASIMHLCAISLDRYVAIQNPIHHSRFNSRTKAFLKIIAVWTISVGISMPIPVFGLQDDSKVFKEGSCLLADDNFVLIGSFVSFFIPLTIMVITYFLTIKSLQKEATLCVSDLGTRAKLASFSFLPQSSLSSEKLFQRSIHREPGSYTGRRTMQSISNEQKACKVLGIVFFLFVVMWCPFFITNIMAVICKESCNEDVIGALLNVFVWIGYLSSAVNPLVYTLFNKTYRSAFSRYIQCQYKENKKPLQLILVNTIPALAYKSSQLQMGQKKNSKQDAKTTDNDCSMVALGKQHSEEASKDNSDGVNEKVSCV
Text: Evaluation of drug binding is an essential step to characterization of all drug-target interactions (Fang 2012, Exp Opin Drug Discov 7:969). The binding affinity of a drug to a target is traditionally viewed as an acceptable surrogate of its in vivo efficacy (Núnez et al., 2012, Drug Disc Today 17: 10). Competition assays, also called displacement or modulation binding assays, are a common approach to measure activity of a ligand at a target receptor (Flanagan 2016, Methods Cell Biol 132: 191). In these assays, standard radioligands acting either as agonists or antagonists are ascribed to specific receptors. […] After incubation, the samples were read on a MicroBeta 2 Microplate Counter (Perkin Elmer). […] Equilibrium binding constants for ketanserin (Kd) were determined from saturation binding curves using the ‘one-site saturation binding analysis’ method of GraphPad PRISM software (Version 9.2.0). […] Ki values were calculated from the competition displacement data using the competitive binding analysis from GraphPad PRISM software. […] Specific binding in counts per minute (cpm) was calculated by subtracting non-specific binding from total binding. Specific binding (pmol/mg) was calculated from pmol of [^3H]ketanserin bound per mg of protein in the assay. The Kd was calculated by fitting the data with the one-site binding model of PRISM software (version 9.2.0).

SMILES	luminescence (cAMP) trend with decreasing ligand dosage, 5-HT1A modulation [1]	trend of increasing % cAMP levels with decreasing ligand dosage [2]	% cAMP levels with decreasing ligand dosage, 5-HT1A activity [1]	competition binding curve at the 5-HT2A receptor [3]
CN(C)CCc1c[nH]c2ccccc12 [DMT]	5-HT1A activity	–	–	–
COc1c(N)ccc2[nH]cc(CCN)c12 [compound (IX)]	–	not observed	5-HT1A binding activity	–
CN(C)CCc1c[nH]c2cccc(O)c12 [psilocin]	–	–	–	binding
NCCc1c[nH]c2ccc(O)cc12 [serotonin]	–	not observed	5-HT1A binding activity	–
N[C@@H](Cc1c[nH]c2ccccc12)C(=O)O [tryptophan]	lack of 5-HT1A modulation	–	–	no binding
